# Several values for one entry are separate records, joined by “and”; a condition that tells them apart may be missing. Equal values may be shown once.
# Experiments:
# [1] = Determination of pKa of formulated lipids with the fluorescent probe TNS; settings: for Lipid B pKa (±0.2): Lipid B by itself, formulation 40:10:40:10
# Procedure: The pKa values for the different ionizable cationic lipids were determined essentially as described (Eastman et al., 1992 Biochemistry 31:4262-4268, which is incorporated by reference in its entirety) using the fluorescent probe 2-(p-toluidino)-6-naphthalenesulfonic acid (TNS), which is non-fluorescent in water but becomes appreciably fluorescent when bound to membranes. Vesicles composed of cationic lipid/DSPC/CH/PEG-c-DOMG (40:10:40:10 mole ratio) were diluted to 0.1 mM in buffers (130 mM NaCl, 10 mM CH3COONH4, 10 mM MES, 10 mM HEPES) of various pH values ranging from 2 to 11. An aliquot of the TNS aqueous solution (1 μM final) was added to the diluted vesicles and after a 30 second equilibration period the fluorescent of the TNS-containing solution was measured at excitation and emission wavelengths of 321 nm and 445 nm, respectively. The pKa of the cationic lipid-containing vesicles was determined by plotting the measured fluorescence against the pH of the solutions and fitting the data to a Sigmodial curve using the commercial graphing program IgorPro.
# Factor VII = assay: In vivo mouse Factor VII silencing model (FVII siRNA in lipid formulations, serum FVII chromogenic assay); design: species or system C57Bl/6 mice; settings: for % residual FVII: 40% cationic lipid/10% DSPC/40% cholesterol/10% PEG-DMG, FIG. 4; for Lipid B ED50: Lipid B by itself; for ED50: dose giving 50% reduction in plasma FVII vs control animals, i.v. tail vein, 24 h, FVII siRNA formulation; for Lipid A ED50: Lipid A by itself
# Procedure: C57BL/6 mice (Charles River Labs, MA) received either saline or siRNA in desired formulations via tail vein injection at a volume of 0.01 mL/g. At various time points post-administration, animals were anesthesized by isofluorane inhalation and blood was collected into serum separator tubes by retro orbital bleed. Serum levels of Factor VII protein were determined in samples using a chromogenic assay (Coaset Factor VII, DiaPharma Group, OH or Biophen FVII, Aniara Corporation, OH) according to manufacturer protocols. A standard curve was generated using serum collected from saline treated animals. In experiments where liver mRNA levels were assessed, at various time points post-administration, animals were sacrificed and livers were harvested and snap frozen in liquid nitrogen. Frozen liver tissue was ground into powder. Tissue lysates were prepared and liver mRNA levels of Factor VII and apoB were determined using a branched DNA assay (QuantiGene Assay, Panomics, CA).
# Factor VII (FVII), a prominent protein in the coagulation cascade, is synthesized in the liver (hepatocytes) and secreted into the plasma. FVII levels in plasma can be determined by a simple, plate-based colorimetric assay. As such, FVII represents a convenient model for determining sirna-mediated downregulation of hepatocyte-derived proteins, as well as monitoring plasma concentrations and tissue distribution of the nucleic acid lipid particles and siRNA.
# C57BL/6 mice (Charles River Labs, MA) received either saline or formulated siRNA via tail vein injection. At various time points after administration, serum samples were collected by retroorbital bleed. Serum levels of Factor VII protein were determined in samples using a chromogenic assay (Biophen FVII, Aniara Corporation, OH). To determine liver mRNA levels of Factor VII, animals were sacrificed and livers were harvested and snap frozen in liquid nitrogen. Tissue lysates were prepared from the frozen tissues and liver mRNA levels of Factor VII were quantified using a branched DNA assay (QuantiGene Assay, Panomics, CA).
# FVII activity was evaluated in FVII siRNA-treated animals at 48 hours after intravenous (bolus) injection in C57BL/6 mice. FVII was measured using a commercially available kit for determining protein levels in serum or tissue, following the manufacturer's instructions at a microplate scale. FVII reduction was determined against untreated control mice, and the results were expressed as % Residual FVII. Two dose levels (0.05 and 0.005 mg/kg FVII siRNA) were used in the screen of each novel liposome composition.
# Test formulations were initially assessed for their FVII knockdown in female 7-9 week old, 15-25 g, female C57B1/6 mice at 0.1, 0.3, 1.0 and 5.0 mg/kg with 3 mice per treatment group. All studies included animals receiving either phosphate-buffered saline (PBS, Control group) or a benchmark formulation. Formulations were diluted to the appropriate concentration in PBS immediately prior to testing. Mice were weighed and the appropriate dosing volumes calculated (10 μl/g body weight). Test and benchmark formulations as well as PBS (for Control animals) were administered intravenously via the lateral tail vein. Animals were anesthetised 24 h later with an intraperitoneal injection of Ketamine/Xylazine and 500-700 μl of blood was collected by cardiac puncture into serum separator tubes (BD Microtainer). Blood was centrifuged at 2,000×g for 10 min at 15° C. and serum was collected and stored at −70° C. until analysis. Serum samples were thawed at 37° C. for 30 min, diluted in PBS and aliquoted into 96-well assay plates. Factor VII levels were assessed using a chromogenic assay (Biophen FVII kit, Hyphen BioMed) according to manufacturer's instructions and absorbance measured in microplate reader equipped with a 405 nm wavelength filter. […]
# [2] = probe 2-(p-toluidino)-6-naphthalenesulfonic acid (TNS), 1 µM final, pKa, TNS assay, vesicles cationic lipid/DSPC/CH/PEG-c-DOMG 40:10:40:10
# [3] = TNS assay, vesicles cationic lipid/DSPC/CH/PEG-c-DOMG 40:10:40:10
structure (smiles),measurement,setting,value
CCCCC/C=C\C/C=C\CCCCCCCCC1(CCCCCCCC/C=C\C/C=C\CCCCC)OCC(NC(=N)N)O1 (centres unmarked) [ALNY-232],pKa,[1]; [2],10
CCCCC/C=C\C/C=C\CCCCCCCCC(CCCCCCCC/C=C\C/C=C\CCCCC)OC(=O)CCCCN(C)C [DLin-M-C4-DMA],Lipid B pKa (±0.2),[1],6.93
same,pKa,[1]; [3],6.93
same,% residual FVII,Factor VII; 0.05 mg/kg siRNA,about 90%
same,% residual FVII,Factor VII; 0.10 mg/kg siRNA,about 90%
same,Lipid B ED50,Factor VII; formulation 40:10:40:10,0.150 mg/kg
same,ED50,Factor VII,0.15 mg/kg
CCCCC/C=C\C/C=C\CCCCCCCCOC(=O)C(CCN(C)C)C(=O)OCCCCCCCC/C=C\C/C=C\CCCCC [DLin-MAL-C2-DMA],pKa,[1]; [2],6.66
same,ED50,Factor VII,1.50 mg/kg
CCCCC/C=C\C/C=C\CCCCCCCCC1(CCCCCCCC/C=C\C/C=C\CCCCC)OCC(CN(C)C)O1 (centres unmarked) [DLin-K-DMA (CDRD)],pKa,[1]; [3],5.91
same,ED50,Factor VII,0.40 mg/kg
CCCCC/C=C\C/C=C\CCCCCCCC(=O)OCC(CN(C)C)OC(=O)CCCCCCC/C=C\C/C=C\CCCCC (centres unmarked) [DLin-DAP-DMA],pKa,[1]; [2],5.67
CCCCC/C=C\C/C=C\CCCCCCCCC(CCCCCCCC/C=C\C/C=C\CCCCC)OC(=O)CCN(C)C [DLin-M-C2-DMA],Lipid A pKa (±0.2),"[1]; Lipid A by itself, formulation 40:10:40:10 (cationic lipid:DSPC:cholesterol:PEG-DMG)",5.64
same,pKa,[1]; [3],5.64
same,% residual FVII,Factor VII; 0.05 mg/kg siRNA,about 90%
same,% residual FVII,Factor VII; 0.10 mg/kg siRNA,about 90%
same,Lipid A ED50,Factor VII; formulation 40:10:40:10,0.600 mg/kg
same,ED50,Factor VII,0.60 mg/kg and 0.6 mg/kg
CCCCC/C=C\C/C=C\CCCCCCCCC1(CCCCCCCC/C=C\C/C=C\CCCCC)OCC(CN(C)C)O1 (centres unmarked) [DLin-K-DMA (Biofine)],pKa,[1]; [2],5.94
same,ED50,Factor VII,0.25 mg/kg
CC/C=C\C/C=C\C/C=C\CCCCCCCCC1(CCCCCCCC/C=C\C/C=C\C/C=C\CC)OCC(CCN(C)C)O1 (centres unmarked) [DLen-K5-C2-DMA],pKa,[1]; [2],6.59
same,ED50,Factor VII,0.05 mg/kg
CCCCC/C=C\C/C=C\CCCCCCCCC(CCCCCCCC/C=C\C/C=C\CCCCC)OC(=O)C(CCN(C)C)C(=O)OC(CCCCCCCC/C=C\C/C=C\CCCCC)CCCCCCCC/C=C\C/C=C\CCCCC [TLin-MAL-C2-DMA],pKa,[1]; [2],3.93
CCCCC/C=C\C/C=C\CCCCCCCCC(CCCCCCCC/C=C\C/C=C\CCCCC)CN(C)CCNC(=N)N [ALNY-139],pKa,[1]; [2],10
same,ED50,Factor VII,5.00 mg/kg
CCCCC/C=C\C/C=C\CCCCCCCCC1(CCCCCCCC/C=C\C/C=C\CCCCC)OCCC(CCCN(C)C)O1 (centres unmarked) [DLin-K6A-C3-DMA],pKa,[1]; [2],6.95
same,ED50,Factor VII,0.70 mg/kg
CCCCC/C=C\C/C=C\CCCCCCCCC(CCCCCCCC/C=C\C/C=C\CCCCC)ON=C(C)CCN(C)C [ALNY-149],pKa,"[1]; probe 2-(p-toluidino)-6-naphthalenesulfonic acid (TNS), 1 µM final, Lipid A pKa (±0.2), Lipid A by itself, formulation 40:10:40:10 (cationic lipid:DSPC:cholesterol:PEG-DMG)",6.05
same,Lipid A ED50,Factor VII; formulation 40:10:40:10,0.050 mg/kg
CCCCC/C=C\C/C=C\CCCCCCCCC1(CCCCCCCC/C=C\C/C=C\CCCCC)OCC(CN(C)C)CO1 [DLin-K6S-C1-DMA],pKa,[1]; [2],5.97
same,ED50,Factor VII,0.10 mg/kg
CCCCC/C=C\C/C=C\C/C=C\CCCCCC(CCCCC/C=C\C/C=C\C/C=C\CCCCC)OC(=O)CCCN(C)C [DLen(γ)-M-C3-DMA],pKa,[1]; [2],6.3
same,ED50,Factor VII,0.08 mg/kg
CCCCC/C=C\C/C=C\CCCCCCCCC(CCCCCCCC/C=C\C/C=C\CCCCC)CN(C)C [ALNY-181],ED50,Factor VII,0.25 mg/kg
CCCCC/C=C\C/C=C\C/C=C\C/C=C\CCCCC1(CCCC/C=C\C/C=C\C/C=C\C/C=C\CCCCC)OCC(CCN(C)C)O1 (centres unmarked) [DAra-K5-C2-DMA],pKa,[1]; [2],6.26
same,ED50,Factor VII,0.52 mg/kg
CCCCC/C=C\C/C=C\CCCCCCCCC1(CCCCCCCC/C=C\C/C=C\CCCCC)OCCC(CCN(C)C)O1 (centres unmarked) [DLin-K6A-C2-DMA],pKa,[1]; [2],6.73
same,ED50,Factor VII,0.25 mg/kg
CCCCC/C=C\C/C=C\CCCCCCCCC1(CCCCCCCC/C=C\C/C=C\CCCCC)OCC(CCN(C)C)O1 (centres unmarked) [DLin-K5-C2-DMA],pKa,"[1]; probe 2-(p-toluidino)-6-naphthalenesulfonic acid (TNS), 1 µM final",6.68
same,ED50,Factor VII,0.10 mg/kg
CCCCC/C=C\C/C=C\CCCCCCCCC1(CCCCCCCC/C=C\C/C=C\CCCCC)OC[C@@H](CCN(C)C)O1 [DLin-K-XTC2-DMA-(R)],pKa,[1]; [2],6.79
same,ED50,Factor VII,0.10 mg/kg
CCCCC/C=C\C/C=C\CCCCCCCCC(CCCCCCCC/C=C\C/C=C\CCCCC)OC(=O)CCCNC [DLin-M-C3-MA],ED50,Factor VII,5.00 mg/kg
CCCCC/C=C\C/C=C\CCCCCCCCC(CCCCCCCC/C=C\C/C=C\CCCCC)OC(=O)CCCN(C)C [DLin-M-C3-DMA],Lipid A ED50,Factor VII; formulation 40:10:40:10,0.030 mg/kg
same,Lipid A ED50,Factor VII; formulation 50:10:38.5:1.5,0.010 mg/kg
same,Lipid B ED50,Factor VII; formulation 40:10:40:10,0.030 mg/kg
same,ED50,Factor VII,0.03 mg/kg
CCCCC/C=C\C/C=C\CCCCCCCCC(CCCCCCCC/C=C\C/C=C\CCCCC)OC(=O)CCCN(C)CC [DLin-M-C3-MEA],pKa,[1]; [3],6.21
same,ED50,Factor VII,0.03 mg/kg
CCCCC/C=C\C/C=C\CCCCCCCCC1(CCCCCCCC/C=C\C/C=C\CCCCC)O[C@@H]2C3CC([C@H](N(C)C)C3)[C@@H]2O1 (some centres unmarked) [ALNY-171],pKa,[1]; [2],6.63
same,ED50,Factor VII,0.25 mg/kg
CCCCC/C=C\C/C=C\CCCCCCCCC1(CCCCCCCC/C=C\C/C=C\CCCCC)OCC(CCCCN(C)C)CO1 [DLin-K6S-C4-DMA],pKa,[1]; [2],7.61
same,ED50,Factor VII,4.00 mg/kg
CCCCC/C=C\C/C=C\CCCCCCCCC(CCCCCCC/C=C\C/C=C\CCCCC)OC(=O)CCC[N+](C)(C)C (centres unmarked) [DLin-M-C3-TMA],pKa,[1]; [2],> 1
same,Lipid B ED50,Factor VII; formulation 40:10:40:10,>1.00 mg/kg
CCCCC/C=C\C/C=C\CCCCCCCCC(CCCCCCCC/C=C\C/C=C\CCCCC)OC(=O)CCCN(C(C)C)C(C)C [DLin-M-C3-DIPA],ED50,Factor VII,4.50 mg/kg and 4.5 mg/kg
CCCCC/C=C\C/C=C\CCCCCCCC1OC2(CCN(C)CC2)OC1CCCCCCC/C=C\C/C=C\CCCCC (centres unmarked) [ALNY-156],pKa,[1]; [3],6.08
same,ED50,Factor VII,<0.1 mg/kg
CCCCC/C=C\C/C=C\CCCCCCCCC(CCCCCCCC/C=C\C/C=C\CCCCC)OC(=O)CCCNCC [DLin-M-C3-EA],pKa,[1]; [3],7.62
same,ED50,Factor VII,5.00 mg/kg
CCCCC/C=C\C/C=C\C/C=C\CCCCCC(CCCCC/C=C\C/C=C\C/C=C\CCCCC)OC(=O)CCCCN(C)C [DLen(γ)-M-C4-DMA],pKa,[1]; [2],6.75
same,ED50,Factor VII,0.50 mg/kg
"CCCCCCCCCCC(O)CN(CCN1CCN(CCN(CC(O)CCCCCCCCCC)CC(O)CCCCCCCCCC)CC1)CCN(CC(O)CCCCCCCCCC)CC(O)CCCCCCCCCC (centres unmarked) [Compound C12-200, reference compound]",Lipid B pKa (±0.2),[1],6.47
same,Lipid B ED50,Factor VII; formulation 40:10:40:10,0.030 mg/kg
CCCCC/C=C\C/C=C\CCCCCCCCC(CCCCCCCC/C=C\C/C=C\CCCCC)OC(=O)CCCCCN(C)C [DLin-M-C5-DMA],ED50,Factor VII,0.65 mg/kg

# From US20160317676A1, “METHODS AND COMPOSITIONS FOR DELIVERY OF NUCLEIC ACIDS” (Tekmira Pharmaceuticals Corporation, priority 2009, published 2016)
